Test [1] relates to Trypanosoma cruzi. As to the kind of experiment: (§1) In vitro Trypanosoma cruzi (TC). The format is functional. Conditions: read-out: ED50 (the source's name).
A further test deals with Plasmodium falciparum. Briefly: In vitro inhibitory activity against Plasmodium falciparum. Format: functional, organism-based.
A short description of test [2]: The toxicity was evaluated against KB cells using podophyllotoxin (ED50 0.2 nM) as a standard. Format: functional. The following applies: Homo sapiens, read-out: ED50 (the source's name).
The test system of test [3] is Trypanosoma cruzi. The description is as §1. Format: functional, organism-based.
Test [4] is described as follows: The toxicity was evaluated against KB cells. The format is functional. The following applies: Homo sapiens, read-out: ED50 (the source's name).

Molecules are shown by their SMILES.

For 14 compounds, EC50 and IC50 results are on record in ChEMBL document CHEMBL1134140, “Design, synthesis, and biological evaluation of a series of simple and novel potential antimalarial compounds” (Bioorg Med Chem Lett, 2001).

In general, IC50 refers to the midpoint of a concentration-inhibition curve. A lower IC50 goes with inhibition by little substance.

`CCCC(=O)Oc1c(OC)c(OC)cc2c1C(=O)[C@]1(OC)C=C[C@H]2N(c2ccccc2)O1`: the values for the EC50 (in the test with Trypanosoma cruzi [1]; in test [2]) were above 68.3 µM and 3.2 µM, respectively. Further, half-maximal inhibition in the test on Plasmodium falciparum (IC50) was put at 3.9 µM.

Consider `COc1cc2c(c(OC(=O)c3ccc(F)cc3)c1OC)C(=O)[C@]1(OC)C=C[C@H]2N(c2ccccc2)O1`, for which the EC50 worked out at 9.2 µM in the test with Trypanosoma cruzi [1] and 6.5 µM in test [2]. The same compound showed an IC50 in the test on Plasmodium falciparum of 7.5 µM.

With `COc1ccc(C(=O)Oc2c(OC)c(OC)cc3c2C(=O)[C@]2(OC)C=C[C@H]3N(c3ccccc3)O2)cc1`, the results for the EC50 (in the test on Trypanosoma cruzi [1]; in test [2]) were above 59.6 µM and 13.3 µM, respectively. In the test on Plasmodium falciparum, this compound had an IC50 of 6.6 µM.

Consider `COc1cc2c(c(OC)c1OC)C(=O)[C@]1(OC)C=C[C@H]2N(c2ccccc2)O1`, for which the EC50 in the test with Trypanosoma cruzi [1] was 65.3 µM; in test [2], below 0.8 µM. In the test with Plasmodium falciparum, the IC50 is 8.9 µM.

Turning to `COc1cc2c(c(O)c1OC)C(=O)[C@]1(OC)C=C[C@H]2N(c2ccccc2)O1`, the EC50 was 4.3 µM with Trypanosoma cruzi [1] and below 0.8 µM in test [2]. The IC50 with Plasmodium falciparum is 5.4 µM.

As for `COc1cc2c(c(OC(=O)c3ccccc3)c1OC)C(=O)[C@]1(OC)C=C[C@H]2N(c2ccccc2)O1`, the EC50 in the test with Trypanosoma cruzi [1] is above 63.4 µM; in test [2] it was 11.8 µM. In the test on Plasmodium falciparum, this compound displayed an IC50 of 3.4 µM.

Take `COc1cc2c(c(OC(=O)COC(C)=O)c1OC)C(=O)[C@]1(OC)C=C[C@H]2N(c2ccccc2)O1`: the results for the EC50 (with Trypanosoma cruzi [1]; in test [2]) were above 63.9 µM and 128 µM, respectively. Also, in the test on Plasmodium falciparum, the IC50 amounted to 3.2 µM.

Regarding `COc1cc2c(c(OC(=O)c3ccc(Cl)cc3)c1OC)C(=O)[C@]1(OC)C=C[C@H]2N(c2ccccc2)O1`, the figures for the EC50 (in the test with Trypanosoma cruzi [1]; in test [2]) were above 59 µM and 29.1 µM, respectively. Besides, the IC50 in the test with Plasmodium falciparum was above 59 µM.

In the case of `CCC(=O)Oc1c(OC)c(OC)cc2c1C(=O)[C@]1(OC)C=C[C@H]2N(c2ccccc2)O1`, the values for the IC50 in the test with Trypanosoma cruzi [3] and in the test on Plasmodium falciparum were above 70.5 µM and 6.6 µM, respectively. Further, the EC50 in test [2] was below 0.7 µM.

For the compound `COc1cc2c(c(OC(C)=O)c1OC)C(=O)[C@]1(OC)C=C[C@H]2N(c2ccccc2)O1`, the half-inhibitory concentration (IC50) was 23.8 µM in the test on Trypanosoma cruzi [3] and 5.3 µM in the test with Plasmodium falciparum. Also, the EC50 in test [2] turned out to be 6.3 µM.

For `COc1cc2c(c(OC(=O)c3ccccc3F)c1OC)C(=O)[C@]1(OC)C=C[C@H]2N(c2ccccc2)O1`, the EC50 in the test on Trypanosoma cruzi [1] is above 61 µM; in test [2], 7.7 µM. This compound also returned a 50% inhibitory concentration (IC50) with Plasmodium falciparum of 6.3 µM.

On to `COc1cc2c(c(OC(=O)CN3C(=O)c4ccccc4C3=O)c1OC)C(=O)[C@]1(OC)C=C[C@H]2N(c2ccccc2)O1`, for which the EC50 was determined as 11.9 µM in the test with Trypanosoma cruzi [1] and 89.8 µM in test [2]. The compound further yielded an IC50 in the test with Plasmodium falciparum of 6.1 µM.

Take `O=C(Cn1ccnc1[N+](=O)[O-])NCc1ccccc1` [BENZNIDAZOLE]: the EC50 with Trypanosoma cruzi [1] turned out to be 7.1 µM.

Take `COc1cc([C@@H]2c3cc4c(cc3[C@H](O)[C@H]3COC(=O)[C@H]23)OCO4)cc(OC)c1OC` [PODOFILOX]: the EC50 in test [4] turned out to be 0.0002 µM.
